For this assay, the system named is MV-4-11 cells. The experiment in a line: Gene expression microarray analysis (Affymetrix PrimeView) and GSEA. The assay is classed as cell-based, human. Set-up: RFU PODN (11730768_x_at) / Fold change /veh PODN (11730768_x_at) / RFU LINC00158 (11744669_a_at) / Fold change /veh LINC00158 (11744669_a_at) / RFU DUSP10 (11751237_a_at) / Fold change /veh DUSP10 (11751237_a_at) / RFU ID3 (11757404_x_at) / Fold change /veh ID3 (11757404_x_at) / RFU PLEKHG5 (11737974_s_at) / Fold change /veh PLEKHG5 (11737974_s_at) / RFU LRRC4B (11730491_at) / Fold change /veh LRRC4B (11730491_at) / RFU GIMAP4 (11747438_a_at) / Fold change /veh GIMAP4 (11747438_a_at) / RFU KRT8 (11758183_x_at) / Fold change /veh KRT8 (11758183_x_at) / RFU CNN1 (11734310_a_at) / Fold change /veh CNN1 (11734310_a_at) / RFU VPS37D (11726825_at) / Fold change /veh VPS37D (11726825_at) / RFU C10orf10 (11716522_x_at) / Fold change /veh C10orf10 (11716522_x_at) / RFU KIR2DL2 /// KIR2DL4 /// KIR2DL5A /// KIR2DL5B /// KIR2DS1 /// KIR2DS2 /// KIR2DS3 /// KIR2DS4 /// KIR3DL3 /// KIR3DL3 /// KIR3DS1 (11738374_at) / Fold change /veh KIR2DL2 /// KIR2DL4 /// KIR2DL5A /// KIR2DL5B /// KIR2DS1 /// KIR2DS2 /// KIR2DS3 /// KIR2DS4 /// KIR3DL3 /// KIR3DL3 /// KIR3DS1 (11738374_at) / RFU C1QL1 (11718748_at) / Fold change /veh C1QL1 (11718748_at) / RFU TMPRSS4 (11747572_a_at) / Fold change /veh TMPRSS4 (11747572_a_at) / RFU HAMP (11756126_x_at) / Fold change /veh HAMP (11756126_x_at) / RFU RNFT2 (11725882_a_at) / Fold change /veh RNFT2 (11725882_a_at) / RFU NR4A2 (11747474_a_at) / Fold change /veh NR4A2 (11747474_a_at) / RFU ABCC12 (11746883_a_at) / Fold change /veh ABCC12 (11746883_a_at) / RFU TMEM136 (11760407_x_at) / Fold change /veh TMEM136 (11760407_x_at) / RFU CLDN22 /// WWC2 (11732394_at) / Fold change /veh CLDN22 /// WWC2 (11732394_at) / RFU HLA-DPB1 (11760878_x_at) / Fold change /veh HLA-DPB1 (11760878_x_at) / RFU SPINT1 (11716480_a_at) / Fold change /veh SPINT1 (11716480_a_at) / RFU GAP43 (11754022_s_at) / Fold change /veh GAP43 (11754022_s_at) / RFU A4GNT (11735810_at) / Fold change /veh A4GNT (11735810_at) / RFU PRB3 (11715151_x_at) / Fold change /veh PRB3 (11715151_x_at) / RFU TUBB4B (11761932_at) / Fold change /veh TUBB4B (11761932_at) / RFU CAPN14 (11732068_a_at) / Fold change /veh CAPN14 (11732068_a_at) / RFU TMCC2 (11721928_a_at) / Fold change /veh TMCC2 (11721928_a_at) / RFU IRGQ (11745062_a_at) / Fold change /veh IRGQ (11745062_a_at) / RFU FAM174B (11720279_a_at) / Fold change /veh FAM174B (11720279_a_at) / RFU TMPRSS4 (11748680_a_at) / Fold change /veh TMPRSS4 (11748680_a_at) / RFU FAM212B (11763350_a_at) / Fold change /veh FAM212B (11763350_a_at) / RFU PLEKHG5 (11743358_a_at) / Fold change /veh PLEKHG5 (11743358_a_at) / RFU ZSCAN30 (11745921_a_at) / Fold change /veh ZSCAN30 (11745921_a_at) / RFU CMKLR1 (11741424_a_at) / Fold change /veh CMKLR1 (11741424_a_at) / RFU LOC101060620 /// MAPK8IP1 (11723275_at) / Fold change /veh LOC101060620 /// MAPK8IP1 (11723275_at) / RFU SPTSSB (11747773_x_at) / Fold change /veh SPTSSB (11747773_x_at) / RFU PRSS12 (11739890_at) / Fold change /veh PRSS12 (11739890_at) / RFU BIN1 (11741810_x_at) / Fold change /veh BIN1 (11741810_x_at) / RFU WNT11 (11732464_a_at) / Fold change /veh WNT11 (11732464_a_at) / RFU C10orf10 (11716521_a_at) / Fold change /veh C10orf10 (11716521_a_at) / RFU C5orf56 (11738089_at) / Fold change /veh C5orf56 (11738089_at) / RFU CYB561 (11721691_x_at) / Fold change /veh CYB561 (11721691_x_at) / RFU ANKRD19P (11752326_a_at) / Fold change /veh ANKRD19P (11752326_a_at) / RFU OR2T12 /// OR2T33 /// OR2T8 (11738714_s_at) / Fold change /veh OR2T12 /// OR2T33 /// OR2T8 (11738714_s_at) / RFU VCAN (11748164_a_at) / Fold change /veh VCAN (11748164_a_at) / RFU JSRP1 (11732532_at) / Fold change /veh JSRP1 (11732532_at) / RFU KRTAP10-11 (11738290_x_at) / Fold change /veh KRTAP10-11 (11738290_x_at) / RFU MYO3A (11730013_a_at) / Fold change /veh MYO3A (11730013_a_at) / RFU EBF3 (11725865_a_at) / Fold change /veh EBF3 (11725865_a_at) / RFU CAMK2N1 (11719241_x_at) / Fold change /veh CAMK2N1 (11719241_x_at) / RFU C5orf56 (11738088_a_at) / Fold change /veh C5orf56 (11738088_a_at) / RFU OLFML3 (11715873_a_at) / Fold change /veh OLFML3 (11715873_a_at) / RFU LOC100653217 /// NTM (11731650_a_at) / Fold change /veh LOC100653217 /// NTM (11731650_a_at) / RFU MAPK11 (11762145_a_at) / Fold change /veh MAPK11 (11762145_a_at) / RFU FIZ1 (11724087_x_at) / Fold change /veh FIZ1 (11724087_x_at) / RFU OASL (11726364_x_at) / Fold change /veh OASL (11726364_x_at) / RFU SOX15 (11748057_x_at) / Fold change /veh SOX15 (11748057_x_at) / RFU CD79A (11719716_a_at) / Fold change /veh CD79A (11719716_a_at) / RFU HIST1H1D (11736915_at) / Fold change /veh HIST1H1D (11736915_at) / RFU CASKIN2 (11723855_a_at) / Fold change /veh CASKIN2 (11723855_a_at) / RFU LOC730098 (11760151_x_at) / Fold change /veh LOC730098 (11760151_x_at) / RFU OR4N2 (11742367_at) / Fold change /veh OR4N2 (11742367_at) / RFU PRRT2 (11749266_a_at) / Fold change /veh PRRT2 (11749266_a_at) / RFU SNX32 (11753110_a_at) / Fold change /veh SNX32 (11753110_a_at) / RFU CDHR5 (11726645_a_at) / Fold change /veh CDHR5 (11726645_a_at) / RFU RCAN1 (11760418_a_at) / Fold change /veh RCAN1 (11760418_a_at) / RFU FAM167A (11723789_a_at) / Fold change /veh FAM167A (11723789_a_at) / RFU FAM26E (11764081_at) / Fold change /veh FAM26E (11764081_at) / RFU ISYNA1 (11749810_s_at) / Fold change /veh ISYNA1 (11749810_s_at) / RFU ACY1 (11761880_at) / Fold change /veh ACY1 (11761880_at) / RFU 11764098_at / Fold change /veh 11764098_at / RFU SAMD14 (11745864_x_at) / Fold change /veh SAMD14 (11745864_x_at) / RFU NPB (11741838_a_at) / Fold change /veh NPB (11741838_a_at) / RFU TMPRSS6 (11731388_a_at) / Fold change /veh TMPRSS6 (11731388_a_at) / RFU KRTAP10-2 (11738614_at) / Fold change /veh KRTAP10-2 (11738614_at) / RFU ARHGAP8 /// PRR5-ARHGAP8 (11727945_x_at) / Fold change /veh ARHGAP8 /// PRR5-ARHGAP8 (11727945_x_at) / RFU KRTAP5-7 /// NADSYN1 (11734609_at) / Fold change /veh KRTAP5-7 /// NADSYN1 (11734609_at) / RFU RASL12 (11751679_a_at) / Fold change /veh RASL12 (11751679_a_at) / RFU CDKN2B (11736163_a_at) / Fold change /veh CDKN2B (11736163_a_at) / RFU PRF1 (11729649_at) / Fold change /veh PRF1 (11729649_at) / RFU, ZNF638 /// ZNF638-IT1 / Fold change vs veh, ZNF638 /// ZNF638-IT1 / RFU, PANK3 / Fold change vs veh, PANK3 / RFU, SH3YL1 / Fold change vs veh, SH3YL1 / RFU, ZEB2 / Fold change vs veh, ZEB2 / RFU, NRIP1 / Fold change vs veh, NRIP1 / RFU, PTTG1IP / Fold change vs veh, PTTG1IP / RFU, CAPN2 / Fold change vs veh, CAPN2 / RFU, MED14 / Fold change vs veh, MED14 / RFU, SNORA58 / Fold change vs veh, SNORA58 / RFU, C1orf63 / Fold change vs veh, C1orf63 / RFU, LRRFIP1 / Fold change vs veh, LRRFIP1 / RFU, NDUFAF7 / Fold change vs veh, NDUFAF7 / RFU, SLC12A2 / Fold change vs veh, SLC12A2 / RFU, IBTK / Fold change vs veh, IBTK / RFU, ESF1 / Fold change vs veh, ESF1 / Fold change vs veh, TMEM50B / RFU, TAOK1 / Fold change vs veh, TAOK1 / RFU, ACBD3 / Fold change vs veh, ACBD3 / RFU, TMA16 / Fold change vs veh, TMA16 / RFU, RWDD3 / Fold change vs veh, RWDD3 / RFU, BCAT1 / Fold change vs veh, BCAT1 / RFU, EDEM3 / Fold change vs veh, EDEM3 / RFU, TMEM33 / Fold change vs veh, TMEM33 / RFU, WDR75 / Fold change vs veh, WDR75 / RFU, AHCTF1 / Fold change vs veh, AHCTF1 / RFU, TFRC / Fold change vs veh, TFRC / RFU, ZDHHC17 / Fold change vs veh, ZDHHC17 / RFU, NOM1 / Fold change vs veh, NOM1 / RFU, ARL8B / Fold change vs veh, ARL8B / RFU, ZBTB11 / Fold change vs veh, ZBTB11 / RFU, TAMM41 / Fold change vs veh, TAMM41 / RFU, KIAA1704 /// LOC100996395 / Fold change vs veh, KIAA1704 /// LOC100996395 / RFU, ING1 / Fold change vs veh, ING1 / RFU, TRMT61B / Fold change vs veh, TRMT61B / RFU, FUBP3 / Fold change vs veh, FUBP3 / RFU, TP53 / Fold change vs veh, TP53 / RFU, TNKS2 / Fold change vs veh, TNKS2 / RFU, ZFP14 / Fold change vs veh, ZFP14 / RFU, ACTR2 / Fold change vs veh, ACTR2 / RFU, PPP3R1 / Fold change vs veh, PPP3R1 / RFU, PIK3R1 / Fold change vs veh, PIK3R1 / RFU, HNRNPA1 / Fold change vs veh, HNRNPA1 / RFU, RNF170 / Fold change vs veh, RNF170 / RFU, ZNF28 / Fold change vs veh, ZNF28 / RFU, RNGTT / Fold change vs veh, RNGTT / RFU, OGT / Fold change vs veh, OGT / RFU, BRD1 / Fold change vs veh, BRD1 / RFU, MARS / Fold change vs veh, MARS / RFU, ZNF655 / Fold change vs veh, ZNF655 / RFU, FAHD1 / Fold change vs veh, FAHD1 / RFU, BDP1 / Fold change vs veh, BDP1 / RFU, LRRCC1 / Fold change vs veh, LRRCC1 / RFU, ARID1A / Fold change vs veh, ARID1A / RFU, ZNF146 / Fold change vs veh, ZNF146 / RFU, ZNF330 / Fold change vs veh, ZNF330 / RFU, GPN3 / Fold change vs veh, GPN3 / RFU, C9orf123 / Fold change vs veh, C9orf123 / RFU, N4BP2L2 / Fold change vs veh, N4BP2L2 / RFU, ARFIP1 / Fold change vs veh, ARFIP1 / RFU, FAM179B / Fold change vs veh, FAM179B / RFU, BCL10 / Fold change vs veh, BCL10 / RFU, UHRF1BP1L / Fold change vs veh, UHRF1BP1L / RFU, BET1 / Fold change vs veh, BET1 / RFU, CNOT2 / Fold change vs veh, CNOT2 / RFU, ZNF268 / Fold change vs veh, ZNF268 / Fold change vs veh, ZNF507 / RFU, DGCR2 / Fold change vs veh, DGCR2 / RFU, WDSUB1 / Fold change vs veh, WDSUB1 / Fold change vs veh, HSP90B1 /// MIR3652 / RFU, ADSS / Fold change vs veh, ADSS / RFU, GK / Fold change vs veh, GK / RFU, ZNF148 / Fold change vs veh, ZNF148 / RFU, TAF9 / Fold change vs veh, TAF9 / RFU, SLC1A5 / Fold change vs veh, SLC1A5 / RFU, SLMO2 / Fold change vs veh, SLMO2 / RFU, ABCC4 / Fold change vs veh, ABCC4 / RFU, LOC101060439 /// RAP1B / Fold change vs veh, LOC101060439 /// RAP1B / RFU, RFX7 / Fold change vs veh, RFX7 / RFU, GTPBP10 / Fold change vs veh, GTPBP10 / RFU, CNEP1R1 / Fold change vs veh, CNEP1R1 / RFU, BIVM-ERCC5 /// ERCC5 / Fold change vs veh, BIVM-ERCC5 /// ERCC5 / RFU, ILF3 / Fold change vs veh, ILF3 / RFU 11762660_at / Fold change /veh 11762660_at / RFU VCAN (11757783_s_at) / Fold change /veh VCAN (11757783_s_at) / RFU DDX43 (11728927_at) / Fold change /veh DDX43 (11728927_at) / RFU KRT8 (11758188_x_at) / Fold change /veh KRT8 (11758188_x_at) / RFU NKD1 (11759106_at) / Fold change /veh NKD1 (11759106_at) / RFU SRD5A1 (11742802_a_at) / Fold change /veh SRD5A1 (11742802_a_at) / RFU TPSAB1 /// TPSB2 (11721975_s_at) / Fold change /veh TPSAB1 /// TPSB2 (11721975_s_at) / RFU GSTM3 (11746129_a_at) / Fold change /veh GSTM3 (11746129_a_at) / RFU IL23R (11737362_x_at) / Fold change /veh IL23R (11737362_x_at) / RFU TMEM51 (11727254_a_at) / Fold change /veh TMEM51 (11727254_a_at) / RFU PIWIL2 (11732686_x_at) / Fold change /veh PIWIL2 (11732686_x_at) / RFU ORM1 (11744905_x_at) / Fold change /veh ORM1 (11744905_x_at) / RFU CCDC152 (11743942_at) / Fold change /veh CCDC152 (11743942_at) / RFU ECM1 (11717891_a_at) / Fold change /veh ECM1 (11717891_a_at) / RFU IL23R (11748794_a_at) / Fold change /veh IL23R (11748794_a_at) / RFU TNFAIP8L3 (11732012_x_at) / Fold change /veh TNFAIP8L3 (11732012_x_at) / RFU MBOAT4 (11741988_at) / Fold change /veh MBOAT4 (11741988_at) / RFU 11764193_at / Fold change /veh 11764193_at / RFU TMEM53 (11763286_at) / Fold change /veh TMEM53 (11763286_at) / RFU MAGEB2 (11727129_at) / Fold change /veh MAGEB2 (11727129_at) / RFU TMEM200A (11744735_a_at) / Fold change /veh TMEM200A (11744735_a_at) / RFU CCDC152 (11751479_a_at) / Fold change /veh CCDC152 (11751479_a_at) / RFU FAM211A (11726209_a_at) / Fold change /veh FAM211A (11726209_a_at) / RFU RGS16 (11746705_a_at) / Fold change /veh RGS16 (11746705_a_at) / RFU VCAN (11755009_s_at) / Fold change /veh VCAN (11755009_s_at) / RFU RHOB (11743442_s_at) / Fold change /veh RHOB (11743442_s_at) / RFU RGS16 (11720943_a_at) / Fold change /veh RGS16 (11720943_a_at) / RFU RGS16 (11720944_at) / Fold change /veh RGS16 (11720944_at) / RFU, VPS4B / Fold change vs veh, VPS4B / RFU, CREB1 / Fold change vs veh, CREB1 / RFU, DNAJC13 / Fold change vs veh, DNAJC13 / RFU, GNAQ / Fold change vs veh, GNAQ / RFU, CDK5R1 / Fold change vs veh, CDK5R1 / RFU, ZRANB3 / Fold change vs veh, ZRANB3 / RFU, CUL4A / Fold change vs veh, CUL4A / RFU, CCNY / Fold change vs veh, CCNY / RFU, UFL1 / Fold change vs veh, UFL1 / RFU, COG3 / Fold change vs veh, COG3 / RFU, DIAPH2 / Fold change vs veh, DIAPH2 / RFU, SKA2 / Fold change vs veh, SKA2 / RFU, AFF3 / Fold change vs veh, AFF3 / RFU, LMF1 / Fold change vs veh, LMF1 / RFU, IPO11 / Fold change vs veh, IPO11 / RFU, DFFB / Fold change vs veh, DFFB / RFU, FOXP1 / Fold change vs veh, FOXP1 / RFU, CARD8 / Fold change vs veh, CARD8 / RFU, STRN3 / Fold change vs veh, STRN3 / RFU, ADK / Fold change vs veh, ADK / RFU, RASSF2 / Fold change vs veh, RASSF2 / RFU, WIPF1 / Fold change vs veh, WIPF1 / RFU, LARP1B / Fold change vs veh, LARP1B / RFU, RASA1 / Fold change vs veh, RASA1 / RFU, RB1 / Fold change vs veh, RB1 / RFU, PPFIA1 / Fold change vs veh, PPFIA1 / RFU, MAT2A / Fold change vs veh, MAT2A / RFU, CCT5 / Fold change vs veh, CCT5 / RFU, WDR92 / Fold change vs veh, WDR92 / RFU, CUX1 / Fold change vs veh, CUX1 / RFU, TTC7A / Fold change vs veh, TTC7A / RFU, TMEM135 / Fold change vs veh, TMEM135 / RFU, DEPTOR / Fold change vs veh, DEPTOR / RFU, CPM / Fold change vs veh, CPM / RFU, DNAJB6 / Fold change vs veh, DNAJB6 / RFU, CACNA2D3 / Fold change vs veh, CACNA2D3 / RFU, DTX4 / Fold change vs veh, DTX4 / RFU, TFCP2 / Fold change vs veh, TFCP2 / RFU, GMCL1 /// GMCL1P1 / Fold change vs veh, GMCL1 /// GMCL1P1 / RFU, AEBP2 / Fold change vs veh, AEBP2 / RFU, SNHG1 /// SNORD22 /// SNORD25 /// SNORD26 /// SNORD27 /// SNORD28 /// SNORD29 /// SNORD31 / Fold change vs veh, SNHG1 /// SNORD22 /// SNORD25 /// SNORD26 /// SNORD27 /// SNORD28 /// SNORD29 /// SNORD31 / Fold change (Aza/veh), C12orf56 (ProbeSet 11735607_a_at) / Fold change (ACY-1035/veh), C12orf56 (ProbeSet 11735607_a_at) / Fold change (Aza/veh), FGFR1OP (ProbeSet 11751329_s_at) / Fold change (ACY-1035/veh), FGFR1OP (ProbeSet 11751329_s_at) / Fold change (Aza/veh), VPS36 (ProbeSet 11739960_a_at) / Fold change (ACY-1035/veh), VPS36 (ProbeSet 11739960_a_at) / RFU SYPL1 (11715823_x_at) / Fold change /veh SYPL1 (11715823_x_at) / RFU IGFBP7 (11715501_s_at) / Fold change /veh IGFBP7 (11715501_s_at) / RFU REEP3 (11722064_at) / Fold change /veh REEP3 (11722064_at) / RFU IGLL1 (11728026_x_at) / Fold change /veh IGLL1 (11728026_x_at): dose or concentration left out as unconfirmed. The conditions noted are these: ProbeSet 11725217_a_at; LIST B.

Consider `Nc1ncn([C@@H]2O[C@H](CO)[C@@H](O)[C@H]2O)c(=O)n1` [azacitidine], for which the “Fold change vs veh, WDSUB1” value turned out to be 0.86.

Source of the values: PMC5218480 (PLoS ONE, 2017).
